Assay results taken from patent US10947574B2, “Method for producing fermented carotenoid using carotenoid-producing bacteria obtained by using cobalt-containing culturing medium” (ENEOS CORPORATION, priority 2015, dated 2021).

How the values were obtained:
[1] = system: Paracoccus zeaxanthinifaciens strain ATCC 21588; experiment: Example 7: cobalt concentration series, growth (OD610) and carotenoid levels (HPLC); assay type: cell-based
Experimental: (§1) In the following examples, carotenoids were quantified by high performance liquid chromatography (HPLC) as follows.
(§2) Two columns of Inertsil SIL-100A, 5 μm (ϕ4.6 mm×250 mm) (GL Sciences Inc., Japan) were connected together for use as a column. For elution, a mixed solution of n-hexane, tetrahydrofuran and methanol (40:20:1) serving as a mobile phase was passed through the column at a flow rate of 1.0 mL per minute at a constant temperature around room temperature. For measurement, samples were each dissolved in tetrahydrofuran and diluted 100-fold with the mobile phase, and 20 μL aliquots of the resulting dilutions were injected into the column. The column eluates were detected at a wavelength of 470 nm. As a standard for quantification, astaxanthin (SIGMA, Cat. No. A9335) was used. The astaxanthin concentration of the standard solution was determined using the following equation after measuring the absorbance (A) of the standard solution at 477 nm and the area percentage % (B) of the astaxanthin peak in HPLC analysis under the above conditions.
Subsequently, a medium of the following composition (glucose 30 g/L, filtered corn steep liquor 30 g/L, ammonium sulfate 1.5 g/L, potassium dihydrogen phosphate 1.5 g/L, disodium hydrogen phosphate dodecahydrate 3.8 g/L, calcium chloride dihydrate 5.0 g/L, magnesium sulfate heptahydrate 0.7 g/L, iron sulfate heptahydrate 1.0 g/L, silicon-based defoaming agent 0.2 g/L) was dispensed in 7.2 ml volumes into cotton-plugged test tubes having an inner diameter of 18 mm to prepare 9 test tubes containing a test tube medium for production. The ingredients used to prepare the test tube medium for production were obtained from lots where microbial cells had been confirmed not to grow well.
The resulting culture solution was then inoculated in 0.05 ml volumes into the 9 types of test tube media for production having different cobalt concentrations, and cultured under shaking at 28° C. for 4 days at 300 spm.
After being cultured for 4 days, the culture solutions were each measured for microbial cell growth by OD610 and measure for carotenoid levels by HPLC.

[2] = system: Paracoccus carotinifaciens mutant strain CF-358; experiment: Example 5: 5 L fermenter culture with cobalt chloride, growth (OD610) and carotenoid levels (HPLC); assay type: cell-based
Experimental: as §1
as §2, with “conditions. […]” for “conditions.”
The ingredients used to prepare the seed flask medium were obtained from lots where microbial cells had been confirmed to grow well.
The resulting culture solution was then inoculated in 80 ml volumes into the individual fermenters, followed by aeration spinner culture at 28° C. under a gauge pressure of 0.01 MPa at an aeration volume of 1.5 vvm for 5 days. To maintain a pH of 7.2 during culture, 15% aqueous ammonia was automatically supplied. The number of spinner rotations was automatically varied such that the dissolved oxygen concentration in each culture solution was maintained at 2 to 4 ppm. An alcohol-based defoaming agent was automatically added to avoid bubbling.
At the completion of culture, the culture solutions were each measured for microbial cell growth by OD610 and measured for carotenoid levels by HPLC (Table 10).

[3] = cobalt added 0.00042 μmol/L, total 0.0024 μmol/L
[4] = cobalt added 0.0042 μmol/L, total 0.0062 μmol/L
[5] = cobalt added 0.021 μmol/L, total 0.023 μmol/L
[6] = cobalt added 0.042 μmol/L, total 0.044 μmol/L
[7] = cobalt added 0.42 μmol/L, total 0.42 μmol/L
[8] = cobalt added 4.2 μmol/L, total 4.2 μmol/L
[9] = cobalt added 21 μmol/L, total 21 μmol/L
[10] = cobalt added 42 μmol/L, total 42 μmol/L
[11] = cobalt added 0.042 μmol/L, total 0.045 μmol/L

**Q.** Which “Carotenoid: Zeaxanthin” value [1, 3] does the source give for O.O.O.O.O.O.[Cl-].[Cl-].[Co+2] [Cobalt chloride hexahydrate] here?
**A.** Its value is 0.6 mg/L.

**Q.** What about the “Carotenoid: β-Carotene” value [1, 3] of the same compound?
**A.** The value was 0.0 mg/L.

**Q.** What about the “Carotenoid: β-Cryptoxanthin” value [1, 3] of the same compound?
**A.** Its value is 0.0 mg/L.

**Q.** What about the OD610 [1, 3] of the same compound?
**A.** The OD610 was 2.

**Q.** And the Total carotenoid [1, 3]?
**A.** Its Total carotenoid is 0.6 mg/L.

**Q.** And the “Carotenoid: Zeaxanthin” value [1, 4]?
**A.** Its value is 2.0 mg/L.

**Q.** And the “Carotenoid: β-Carotene” value [1, 4]?
**A.** The value was 0.2 mg/L.

**Q.** What about the “Carotenoid: β-Cryptoxanthin” value [1, 4] of the same compound?
**A.** Its value is 0.1 mg/L.

**Q.** What about the OD610 [1, 4] of the same compound?
**A.** The OD610 was 6.

**Q.** What about the Total carotenoid [1, 4] of the same compound?
**A.** The Total carotenoid was 2.3 mg/L.

**Q.** And the “Carotenoid: Zeaxanthin” value [1, 5]?
**A.** The value was 10.6 mg/L.

**Q.** And the “Carotenoid: β-Carotene” value [1, 5]?
**A.** Its value is 0.7 mg/L.

**Q.** And the “Carotenoid: β-Cryptoxanthin” value [1, 5]?
**A.** The value was 0.3 mg/L.

**Q.** What about the OD610 [1, 5] of the same compound?
**A.** Its OD610 is 25.

**Q.** And the Total carotenoid [1, 5]?
**A.** The Total carotenoid was 11.6 mg/L.

**Q.** What about the “Carotenoid: Zeaxanthin” value [1, 6] of the same compound?
**A.** The value was 13.6 mg/L.

**Q.** What about the “Carotenoid: β-Carotene” value [1, 6] of the same compound?
**A.** Its value is 0.8 mg/L.

**Q.** And the “Carotenoid: β-Cryptoxanthin” value [1, 6]?
**A.** The value was 0.3 mg/L.

**Q.** What about the OD610 [1, 6] of the same compound?
**A.** Its OD610 is 29.

**Q.** And the Total carotenoid [1, 6]?
**A.** The Total carotenoid was 14.7 mg/L.

**Q.** And the “Carotenoid: Zeaxanthin” value [1, 7]?
**A.** Its value is 13.4 mg/L.

**Q.** What about the “Carotenoid: β-Carotene” value [1, 7] of the same compound?
**A.** The value was 0.7 mg/L.

**Q.** What about the “Carotenoid: β-Cryptoxanthin” value [1, 7] of the same compound?
**A.** Its value is 0.3 mg/L.

**Q.** And the OD610 [1, 7]?
**A.** The OD610 was 29.

**Q.** What about the Total carotenoid [1, 7] of the same compound?
**A.** Its Total carotenoid is 14.4 mg/L.

**Q.** What about the “Carotenoid: Zeaxanthin” value [1, 8] of the same compound?
**A.** Its value is 12.9 mg/L.

**Q.** And the “Carotenoid: β-Carotene” value [1, 8]?
**A.** The value was 0.7 mg/L.

**Q.** What about the “Carotenoid: β-Cryptoxanthin” value [1, 8] of the same compound?
**A.** Its value is 0.3 mg/L.

**Q.** And the OD610 [1, 8]?
**A.** The OD610 was 28.

**Q.** And the Total carotenoid [1, 8]?
**A.** Its Total carotenoid is 13.9 mg/L.

**Q.** What about the “Carotenoid: Zeaxanthin” value [1, 9] of the same compound?
**A.** The value was 10.8 mg/L.

**Q.** What about the “Carotenoid: β-Carotene” value [1, 9] of the same compound?
**A.** The value was 0.6 mg/L.

**Q.** And the “Carotenoid: β-Cryptoxanthin” value [1, 9]?
**A.** Its value is 0.4 mg/L.

**Q.** And the OD610 [1, 9]?
**A.** The OD610 was 24.

**Q.** What about the Total carotenoid [1, 9] of the same compound?
**A.** The Total carotenoid was 11.8 mg/L.

**Q.** And the “Carotenoid: Zeaxanthin” value [1, 10]?
**A.** The value was 6.4 mg/L.

**Q.** What about the “Carotenoid: β-Carotene” value [1, 10] of the same compound?
**A.** The value was 0.3 mg/L.

**Q.** And the “Carotenoid: β-Cryptoxanthin” value [1, 10]?
**A.** The value was 0.3 mg/L.

**Q.** What about the OD610 [1, 10] of the same compound?
**A.** Its OD610 is 18.

**Q.** And the Total carotenoid [1, 10]?
**A.** The Total carotenoid was 7.0 mg/L.

**Q.** And the “Carotenoid: 3-Hydroxyechinenone” value [2, 11]?
**A.** Its value is 12 mg/L.

**Q.** What about the “Carotenoid: Adonirubin” value [2, 11] of the same compound?
**A.** Its value is 273 mg/L.

**Q.** What about the “Carotenoid: Adonixanthin” value [2, 11] of the same compound?
**A.** The value was 45 mg/L.

**Q.** And the “Carotenoid: Astaxanthin” value [2, 11]?
**A.** The value was 775 mg/L.

**Q.** And the “Carotenoid: Asteroidenone” value [2, 11]?
**A.** The value was 11 mg/L.

**Q.** And the “Carotenoid: Canthaxanthin” value [2, 11]?
**A.** The value was 90 mg/L.

**Q.** And the “Carotenoid: Echinenone” value [2, 11]?
**A.** Its value is 37 mg/L.

**Q.** And the “Carotenoid: β-Carotene” value [2, 11]?
**A.** Its value is 58 mg/L.

**Q.** What about the OD610 [2, 11] of the same compound?
**A.** The OD610 was 194.

**Q.** What about the Total carotenoid [2, 11] of the same compound?
**A.** The Total carotenoid was 1302 mg/L.

**Q.** And the “Total carotenoid/dry microbial cells” value [2, 11]?
**A.** The value was 41.9 mg/g.

**Q.** What about the “Carotenoid: 3-Hydroxyechinenone” value [2, 7] of the same compound?
**A.** Its value is 12 mg/L.

**Q.** What about the “Carotenoid: Adonirubin” value [2, 7] of the same compound?
**A.** Its value is 216 mg/L.

**Q.** What about the “Carotenoid: Adonixanthin” value [2, 7] of the same compound?
**A.** Its value is 73 mg/L.

**Q.** And the “Carotenoid: Astaxanthin” value [2, 7]?
**A.** The value was 815 mg/L.

**Q.** And the “Carotenoid: Asteroidenone” value [2, 7]?
**A.** Its value is 15 mg/L.

**Q.** What about the “Carotenoid: Canthaxanthin” value [2, 7] of the same compound?
**A.** Its value is 74 mg/L.

**Q.** And the “Carotenoid: Echinenone” value [2, 7]?
**A.** Its value is 37 mg/L.

**Q.** And the “Carotenoid: β-Carotene” value [2, 7]?
**A.** Its value is 60 mg/L.

**Q.** What about the OD610 [2, 7] of the same compound?
**A.** Its OD610 is 208.

**Q.** And the Total carotenoid [2, 7]?
**A.** The Total carotenoid was 1303 mg/L.

**Q.** What about the “Total carotenoid/dry microbial cells” value [2, 7] of the same compound?
**A.** The value was 39.1 mg/g.

**Q.** And the “Carotenoid: 3-Hydroxyechinenone” value [2, 8]?
**A.** The value was 5 mg/L.

**Q.** What about the “Carotenoid: Adonirubin” value [2, 8] of the same compound?
**A.** Its value is 285 mg/L.

**Q.** What about the “Carotenoid: Adonixanthin” value [2, 8] of the same compound?
**A.** Its value is 18 mg/L.

**Q.** What about the “Carotenoid: Astaxanthin” value [2, 8] of the same compound?
**A.** Its value is 580 mg/L.

**Q.** And the “Carotenoid: Asteroidenone” value [2, 8]?
**A.** Its value is 3 mg/L.

**Q.** What about the “Carotenoid: Canthaxanthin” value [2, 8] of the same compound?
**A.** Its value is 338 mg/L.

**Q.** What about the “Carotenoid: Echinenone” value [2, 8] of the same compound?
**A.** The value was 61 mg/L.

**Q.** And the “Carotenoid: β-Carotene” value [2, 8]?
**A.** Its value is 29 mg/L.

**Q.** What about the OD610 [2, 8] of the same compound?
**A.** The OD610 was 191.

**Q.** What about the Total carotenoid [2, 8] of the same compound?
**A.** Its Total carotenoid is 1319 mg/L.

**Q.** And the “Total carotenoid/dry microbial cells” value [2, 8]?
**A.** Its value is 43.2 mg/g.

**Q.** And the “Carotenoid: 3-Hydroxyechinenone” value [2, 9]?
**A.** The value was 4 mg/L.

**Q.** What about the “Carotenoid: Adonirubin” value [2, 9] of the same compound?
**A.** Its value is 347 mg/L.

**Q.** And the “Carotenoid: Adonixanthin” value [2, 9]?
**A.** Its value is 7 mg/L.

**Q.** And the “Carotenoid: Astaxanthin” value [2, 9]?
**A.** The value was 103 mg/L.

**Q.** And the “Carotenoid: Asteroidenone” value [2, 9]?
**A.** Its value is 1 mg/L.

**Q.** What about the “Carotenoid: Canthaxanthin” value [2, 9] of the same compound?
**A.** Its value is 431 mg/L.

**Q.** What about the “Carotenoid: Echinenone” value [2, 9] of the same compound?
**A.** Its value is 103 mg/L.

**Q.** What about the “Carotenoid: β-Carotene” value [2, 9] of the same compound?
**A.** The value was 27 mg/L.

**Q.** What about the OD610 [2, 9] of the same compound?
**A.** The OD610 was 143.

**Q.** And the Total carotenoid [2, 9]?
**A.** The Total carotenoid was 1023 mg/L.

**Q.** What about the “Total carotenoid/dry microbial cells” value [2, 9] of the same compound?
**A.** Its value is 44.9 mg/g.

**Q.** What about the “total carotenoid production level, in words” value ([2]; final concentration of 0.042 to 21 μmol/L) of the same compound?
**A.** The value was “high”.
